The values below come from patent US5242945A, “Tetronic and thiotetronic acid derivatives as phospholipase A2 inhibitors” (American Home Products Corporation, priority 1991, dated 1993).

One may read the inhibition as the drop in the measured response relative to a control, in per cent. As a reminder, the IC50 is the concentration that inhibits the measured activity by half.

One experiment has as its system 5-lipoxygenase (LTC4). Description: resident murine peritoneal macrophage assay, LTC4. The experiment is classed as cell-based, mouse (Swiss Webster). As to the method: (§1) The ability of the compounds of the invention to act as inhibitors of the enzymes 5-lipoxygenase and cyclooxygenase is measured in the resident murine peritoneal macrophage assay.
Resident peritoneal macrophages are collected from female Swiss Webster mice (49 days old, 20-25 gms, Buckshire) by lavaging with 7-8 ml Hanks Balanced Salt Solution (HBSS) without Ca^++ and Mg^++ (GIBCO). The lavage fluid from several mice is pooled and centrifuged at 4° C. for 10 minutes at 400 xg.
(§2) Residual serum and cellular debris are removed from the monolayers by washing 3× with 2 ml HBSS containing Ca^++ and Mg^++. Macrophages are preincubated for 5 minutes with 1 ml serum-free M199 containing 10 μl dimethyl sulfoxide (DMSO) vehicle or test compound prior to cell activation with zymosan ([…]) or arachidonic acid (AA) (2 μM). After 2 hours, the supernatants are removed and either assayed for LTC4 and PGE2 by radioimmunoassay (RIA) directly or stored at -20° C. In all cases, results are expressed as ng metabolite/4×10^6 cells.
(§3) Raw data (dpm) may be stored directly onto an "Autostart" tape using the HP85 in room C-096. The raw data are converted to ng metabolite/4-10^6cells using the standard curve by a "RIANAL" program (HP85) or a "NONLIN" program (HP9816). Results are then expressed as percent inhibition of zymosan induced, leukotriene or prostaglandin synthesis (control) using the equation: [formula]

The test system of a further experiment is cyclooxygenase (PGE2). Description: resident murine peritoneal macrophage assay, PGE2. The experiment is classed as cell-based, mouse (Swiss Webster). The conditions noted are these: for inhibition at 0.5 µM / inhibition at 1 µM: read-out: PGE2 zymosan % Inhibition. The procedure: as §1
Resident peritoneal macrophages are collected from female Swiss Webster mice (49 days old, 20-25 gms, Buckshire) by lavaging with 7-8 ml Hanks Balanced Salt Solution (HBSS) without Ca^++ and Mg^++ (GIBCO). The lavage fluid from several mice is pooled and centrifuged at 4° C. for 10 minutes at 400 xg. The cell pellet is resuspended in Medium 199 (GIBCO) with HEPES buffer containing 100 μg/ml gentamicin. Two ml of the cell suspension (4×10^6 cells) are then plated on 35 mm culture dishes (Nunc).
A macrophage monolayer is established after a 1-1.5 hour incubation of the cells at 37° C. in an atmosphere of […] and 5% CO2. The monolayers are washed 2× with 2 ml HBDSS, containing Ca^++ and Mg^++ after which 2 ml Medium 199 supplemented with 10% freshly thawed heat-inactivated fetal bovine serum and 100 μg/ml gentamicin is added for an overnight incubation.
as §2, §3

For the next experiment, the target named is T1, human platelet PLA2 (Homo sapiens, UniProt P14555).
T1 construct: platelet acid extract PLA2; from tissue; host or cells: human platelets, semipurified acid extract
T1 sequence (P14555 21-144): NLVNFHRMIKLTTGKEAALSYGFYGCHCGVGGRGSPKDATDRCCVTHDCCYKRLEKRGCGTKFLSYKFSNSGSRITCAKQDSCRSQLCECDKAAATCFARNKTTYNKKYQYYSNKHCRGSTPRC
Description: in vitro isolated phospholipase A2 assay, human platelet PLA2. The conditions noted are these: at 10 μM; + values given without explanation; read-out: % Inhibition HP (human platelet). The experiment is classed as biochemical. The procedure:
(§4) The compounds of the invention are tested in an in vitro isolated phospholipase A2 assay to determine the ability of the test compounds to inhibit the release of arachidonic acid from an arachidonic acid-containing substrate by the action of phospholipase A2 enzyme from human and non-human sources.
(§5) Into a 15 mL polypropylene tube are added the following:
(§6) ^3 H-AA E. coli substrate^1
(§7) Tris-HCl (0.5 M) pH 7.5^3
(§8) PLA2 25 Volume yielding 12%
(§9) 100 hydrolysis in 10 min.
(§10) *pre-incubate at room temperature 30 min prior to substrate addition.
(§11) ^6 Two human PLA2 enzymes are used: a) Semipurified human
(§12) platelet acid extract PLA2 (in 10 mM sodium acetate buffer, pH 4.5).
(§13) Remove protein precipitate by centrifugation at about 2200 rpm for 10
(§14) minutes. b) Purified human synovial fluid.
(§15) Incubate the 100 μL reaction mixture for 10 minutes at 37° C. in a shaking water bath. The reaction is terminated by the addition of 2 mL tetrahydrofuran, followed by vortexing. NH2 columns (100 μg/mL--Analytichem International) are conditioned with 0.5 mL tetrahydrofuran followed by 0.5 mL tetrahydrofuran/water (2 mL:0.1 mL, v/v).
(§16) The sample is loaded onto the columns and slowly drawn through them. The hydrolyzed arachidonic acid retained in the columns is eluted therefrom with 1 mL tetrahydrofuran/glacial acetic acid (2%). The arachidonic acid is transferred to scintillation vials and quantitated by β-counting analysis. A "total counts" sample is prepared by pipetting 25 μL ^3 H-arachidonate E. coli directly into a scintillation vial to which is added 1 mL tetrahydrofuran. 10 mL aquasol (scintillation cocktail) is added to all samples.

The target of experiment [1] is T2, human synovial fluid PLA2 (Homo sapiens, UniProt P14555).
T2 construct: Purified human synovial fluid; from tissue; host or cells: human synovial fluid
T2 sequence (P14555 21-144): T1 sequence (P14555 21-144)
Nature of the experiment: in vitro isolated phospholipase A2 assay, human synovial fluid PLA2. The experiment is classed as biochemical. Particulars: at 10 μM; + values given without explanation; read-out: % Inhibition HSF (human synovial fluid). The procedure:
as §4, §5, §6, §7, §8, §9, §10, §11, §12, §13, §14, §15, §16

For the next experiment, the system named is TPA-induced ear edema. Description: 12-o-tetradecanoylphorbol acetate (TPA)-induced murine ear edema assay. The experiment is classed as in vivo, mouse (Swiss Webster). The conditions noted are these: TPA; topical, 200 μg, vehicle acetone. The procedure: The ability of the compounds of the invention to inhibit inflammatory responses is examined in the in vivo arachidonic acid (AA)/12-o-tetradecanoylphorbol acetate (TPA)-induced murine ear edema assay.
Swiss Webster female mice (Buckshire), approximately 8 weeks old are placed into plastic boxes in groups of six. Eight groups of mice receive AA topically on the right ear, and another 8 groups receive TPA topically on the right ear. AA and TPA are dissolved in acetone at concentrations of 100 mg/ml and 100 μg/ml respectively. The phlogistics are applied to the right ear by the means of an automatic pipet. Volumes of 10 μl are applied to the inner and outer surfaces of the ear. Each mouse receives either 2 mg/ear AA or 2 μg/ear TPA. The left ear (control) receives acetone delivered in the same manner. Topical and subcutaneous dosing regimens are as follows 1) drugs are given 30 minutes prior to AA treatment and 2) drugs are given 30 minutes after treatment with TPA.
Measurements are taken with Oditest calipers, 0-10 mm with 0.01 graduations. The right and left ears are measured after 1 hr AA-induced inflammation and 4 hours after TPA-induced inflammation.
The difference between right and left ear thickness is calculated and the significance is determined by a one way analysis of variance with Dunnett's comparisons to control (P=0.05). Drug effects are expressed as a percent change from control values: [formula]

Setting [2] is: Mus musculus, Peritoneal macrophage, zymosan stimulation.
[3] abbreviates: Mus musculus, Peritoneal macrophage, reference compounds, 95% confidence limits on next line, read-out: IC50 PGE2.
[4] abbreviates: zymosan stimulation, dose not given.
The mark [5] stands for this setting: Mus musculus, Peritoneal macrophage, zymosan stimulation, 0.2 μM.

Read-outs that look alike come from different tables or passages of the source.

In the case of `CCCCCCCC[C@@H]1C[C@@H]1CCCCCCCC(=O)C1=C(O)COC1=O` (relative stereo) [Example 19, (Z)-4-Hydroxy-3-(1-oxo-8-(2'-octylcyclopropyl)octanyl)-2(5H)-furanone], the inhibition at 0.5 µM was determined as 37.5% with 5-lipoxygenase (LTC4) (setting [2]) and 68.4% with cyclooxygenase (PGE2) (setting [2]). Besides, the inhibition at 10 µM on human platelet PLA2 is 83%; in experiment [1], 88%.
With `CCCC[C@@H]1C[C@@H]1CCCCCCCC(=O)C1=C(O)COC1=O` (relative stereo) [Example 54, 4-Hydroxy-3-[(Z)-8-(2-butylcyclopropyl)-1-oxooctyl]-2(5H)-furanone], the inhibition at 0.1 µM in the experiment with 5-lipoxygenase (LTC4) (setting [2]) was found to be 59.3%; in the experiment on cyclooxygenase (PGE2) (setting [2]) it was 49.5%.
Regarding `CCCCCCCCCCC[C@@H]1C[C@@H]1CCCCC(=O)C1=C(O)COC1=O` (relative stereo) [Example 55], the values for the inhibition at 0.1 µM in the experiment with 5-lipoxygenase (LTC4) (setting [2]) and in the experiment with cyclooxygenase (PGE2) (setting [2]) were 80.3% and 39.2%, respectively. The inhibition at 0.5 µM with 5-lipoxygenase (LTC4) (setting [2]) was determined as 64.2%; in the experiment with cyclooxygenase (PGE2) (setting [2]), 74.3%.
Turning to `CCCCCC#CCC#CCC#CCC#CCCCC(=O)O` [ETYA, reference compound], in the experiment on cyclooxygenase (PGE2) (setting [3]), the IC50 was determined as 1260 nM.
`CCCCCCNC(=O)OCC(CCC(=O)C1=C(O)COC1=O)OC(=O)NCCCCCC` (stereo not drawn) [Example 30, Hexylcarbamic acid 5-(2,5-dihydro-4-hydroxy-2-oxo-3-furanyl)-5-oxo-1,2-pentanediyl ester]: the results for the inhibition at 1 µM with 5-lipoxygenase (LTC4) (setting [2]) and with cyclooxygenase (PGE2) (setting [2]) were 41.5% and 45.8%, respectively. For the same compound, the inhibition at 10 µM at human platelet PLA2 turned out to be 37.4%; in experiment [1], 21%.
Consider `CCCCCCCC/C=C\CCCCCCCC(=O)OCCCC(=O)C1=C(O)COC1=O` [Example 38, (Z)-9-Octadecanoic acid 4-(2,5-dihydro-4-hydroxy-2-oxo-3-furanyl)-4-oxobutanoic ester], for which the inhibition at 1 µM in the experiment with 5-lipoxygenase (LTC4) (setting [2]) is 46.4%; with cyclooxygenase (PGE2) (setting [2]), 75.8%. Besides, the “Topical % Inhibition at 200 μg” value in the experiment with TPA-induced ear edema was 23%. Also, the inhibition at 10 µM at human platelet PLA2 stood at 80.9%; in experiment [1], 18.8%.
Regarding `CCCCCCCC/C=C\CCCCCCCCNC(=O)OC(CCC(=O)C1=C(O)COC1=O)COC/C=C(\C)CCC=C(C)C` (stereo not drawn) [Example 40], the IC50 is 800 nM in the experiment with 5-lipoxygenase (LTC4) (Mus musculus, Peritoneal macrophage, zymosan stimulation, read-out: LTC4 zymosan IC50) and 800 nM in the experiment with cyclooxygenase (PGE2) (Mus musculus, Peritoneal macrophage, zymosan stimulation, read-out: PGE2 zymosan IC50). In addition, in the experiment with 5-lipoxygenase (LTC4) (setting [4]), the “LTC4 zymosan % Inhibition” value was determined as 87%. In addition, in the experiment on cyclooxygenase (PGE2) (setting [4]), the “PGE2 zymosan % Inhibition” value stood at 37%. The inhibition at 10 µM is 96.5% at human platelet PLA2 and 91% in experiment [1].
On to `O=C(CCCCCCCCCc1ccc(Cl)cc1)C1=C(O)COC1=O` [Example 41, 4-Hydroxy-3-[10-(4-chlorophenyl)-1-oxodecyl]-2(5H)-furanone], for which the inhibition at 0.1 µM turned out to be 61% with 5-lipoxygenase (LTC4) (setting [2]) and 29% with cyclooxygenase (PGE2) (setting [2]). The figures for the inhibition at 0.5 µM in the experiment with 5-lipoxygenase (LTC4) (setting [2]) and in the experiment on cyclooxygenase (PGE2) (setting [2]) were 90% and 97%, respectively. The results for the inhibition at 10 µM (on human platelet PLA2; in experiment [1]) were 12% and 13%, respectively.
Consider `O=C(CCCCCCCCCc1ccc(Cl)c(Cl)c1)C1=C(O)COC1=O` [Example 42, 4-Hydroxy-3-[10-(3,4-dichlorophenyl)-1-oxodecyl]-2(5H)-furanone], for which the inhibition at 0.1 µM was 58% in the experiment on 5-lipoxygenase (LTC4) (setting [2]) and -8% in the experiment on cyclooxygenase (PGE2) (setting [2]). The inhibition at 0.5 µM is 70% with 5-lipoxygenase (LTC4) (setting [2]) and 97% with cyclooxygenase (PGE2) (setting [2]). Besides, the inhibition at 10 µM on human platelet PLA2 is 6.6%; in experiment [1] it was 22%.
As for `CC(C)(C)c1ccc(CCCCCCCCCC(=O)C2=C(O)COC2=O)cc1` [Example 43, 4-Hydroxy-3-[10-[4-(1,1-dimethylethyl)phenyl]1-oxodecyl]-2(5H)-furanone], the inhibition at 0.1 µM in the experiment with 5-lipoxygenase (LTC4) (setting [2]) was 71%; in the experiment with cyclooxygenase (PGE2) (setting [2]) it was 54%. Also, the inhibition at 0.5 µM with 5-lipoxygenase (LTC4) (setting [2]) worked out at 96%; with cyclooxygenase (PGE2) (setting [2]) it was 92%. Moreover, the inhibition at 10 µM is 29.7% on human platelet PLA2 and 44.4% in experiment [1].
Take `O=C(CCCCCCCCCc1ccc(Br)cc1)C1=C(O)COC1=O` [Example 44, 4-Hydroxy-3-[10-(4-bromophenyl)-1-oxodecyl]-2(5H)-furanone]: the inhibition at 0.1 µM in the experiment with 5-lipoxygenase (LTC4) (setting [2]) is 58%; with cyclooxygenase (PGE2) (setting [2]), -20%. Also, the inhibition at 0.5 µM came out at 94% in the experiment on 5-lipoxygenase (LTC4) (setting [2]) and 88% in the experiment on cyclooxygenase (PGE2) (setting [2]). Further, the inhibition at 10 µM at human platelet PLA2 is 16.1%; in experiment [1], 37%.
Consider `O=C(CCCCCCCCCc1ccc(C(F)(F)F)cc1)C1=C(O)COC1=O` [Example 45, 4-Hydroxy-3[10-(4-trifluoromethyl)phenyl]-2(5H)-furanone], for which the inhibition at 0.2 µM was 34.5% in the experiment with 5-lipoxygenase (LTC4) (setting [5]) and 45% in the experiment with cyclooxygenase (PGE2) (setting [5]). Moreover, the inhibition at 10 µM on human platelet PLA2 was found to be 63%; in experiment [1], 55.6%.
As for `O=C(CCCCOc1ccc(Cl)cc1)C1=C(O)CSC1=O` [Example 49, 4-Hydroxy-3-[5-(4-chlorophenoxy)-1-oxopentyl]-2(5H)-thiophenone], the inhibition at 0.5 µM was -19.7% in the experiment with 5-lipoxygenase (LTC4) (setting [2]) and -11.8% in the experiment with cyclooxygenase (PGE2) (setting [2]). In addition, the inhibition at 10 µM at human platelet PLA2 is 1.7%; in experiment [1], 6.7%.
On to `CC(Cc1ccc(O)c(O)c1)C(C)Cc1ccc(O)c(O)c1` (stereo not drawn) [NDGA, reference compound], for which the IC50 was determined as […] with 5-lipoxygenase (LTC4) (Mus musculus, Peritoneal macrophage, reference compounds, 95% confidence limits on next line, read-out: IC50 LTC4) and 2150 nM with cyclooxygenase (PGE2) (setting [3]).
